# How the values were obtained:
# [1] = Theoretical maximum absorbable dose (MAD), mouse intestine; details: for MAD (ug) mouse (PAMPA): calculated using PAMPA permeability
# Procedure: (§1) To evaluate the intestinal absorption potential of selected compounds, the maximum absorbable dose (MAD) in mouse, rat and human intestines was also calculated using a modification of the original equation (Johnson 1996, Hilgers 2003): MAD (mg)=S·Pe·(A/ILV)·SIV·SITT (Eq. 1), where S is the solubility measured at pH 7.4 (mg/ml), Pe is the permeability measured in artificial membranes (PAMPA) or in the apical to basolateral direction of Caco-2 cells (cm/sec), A is the intestinal surface area (cm^2), ILV is the intestinal lumen volume (cm^3), SIV is the small intestinal volume (ml) and SITT is the small intestinal transit time (sec).
# RT4 = experiment: Proliferation assay using bladder cancer cell lines: RT4; type: cell-based, human; details: Homo sapiens, RT-4; 72 h culture, CyQuant proliferation assay
# Procedure: (§2) Bladder cancer cell lines (T24, RT112, HT1376 and RT4 are human bladder cancer cell lines; NHEK are normal human keratinocytes) were obtained from the European Collection of Cell Cultures (Salisbury, UK). Cells were plated at 3×10^3 per well, in flat bottomed 96-well plates in 100 μl of DMEM medium containing: 5% Fetal Clone 1,50 μg/l gentamicin, 1 mM sodium pyruvate and 1% non-essential amino acids. After culturing for 24 h at 37° C. in 5% CO2, to allow cells to adhere to the plates, VDR ligands (compounds (1)-(14)) were added at concentrations ranging from 100 μM to 0.3 μM in 100 μl of above-mentioned complete medium. After a further 72 h of culture, cell proliferation was measured using a fluorescence-based proliferation assay kit. (CyQuant Cell Proliferation Assay Kit, Molecular Probes, Eugene, Oreg., USA). The IC50 was calculated from the regression curve of the titration data.
# [2] = Theoretical maximum absorbable dose (MAD), rat intestine; details: for MAD (ug) rat (PAMPA): calculated using PAMPA permeability
# Procedure: as §1
# [3] = Permeability by passive diffusion (PAMPA); type: in vitro ADME; details: for PAMPA % Memb: % retention in the membrane; for Papp at 4 h, 10 μM: PAMPA, pH 7.4, Table 8
# Procedure: Permeability by Passive Diffusion (PAMPA). Experiments were performed in 96-well acceptor and donor plates using 15% soy lecithin in n-dodecane artificial membranes. The acceptor plate (96 well hydrophobic filter plate (MAIP N45, Millipore)) was prepared by adding 4 μL of artificial membrane material on the top of the filter and the plate was filled with 200 μL of HEPES buffered HBSS (pH 7.4). The donor plate (an indented 96-well plate from p-ION, MA) was filled with 200 μL of HEPES buffered HBSS (pH 7.4) containing 10 μM of the test compounds. The acceptor plate was placed onto the donor plate to form a “sandwich” and was incubated at 37° C. for 4 hours. After the incubation period, acceptor, donor and initial donor solution (reference) were analysed via LC-MS/MS. Data were reported as bilateral Peff in cm×10^−6/sec and % retention in the membrane.
# NHEK = experiment: Proliferation assay: NHEK normal human keratinocytes; type: cell-based; details: 72 h culture, CyQuant proliferation assay
# Procedure: as §2
# [4] = system: Renin mRNA in As4.1 cells; experiment: Renin mRNA inhibition in murine juxtaglomerular cell line As4.1; type: cell-based; details: Mus musculus, 24 h, real time PCR normalized versus β-actin, read-out: Renin mRNA inh.As4.1/wt
# Procedure: As4.1 cells (80% subconfluent) were treated in complete medium with compounds of the invention at 10^−8, 10^−9 and 10^−10 M for 24 h. Total RNA was extracted using RNeasy Mini kit (Qiagen); treated with DNase I (Qiagen) and Reverse Transcription Reagent (Applied Biosystems) with Random Examers were used for reverse transcription according to the manufacturers' instructions. Real Time PCR analysis was performed in multiplex using commercially available β-actin VIC-conjugated probe (cat. n. 4352341E, Applied Biosystems) and custom designed mRENIN FAM-conjugated probe (Assay by Design, Applied Biosystems; Forward: […]; Reverse: […]; Probe: FAM-[…]-MGB). Reactions were performed in a 25 μL volume containing 12,5 μl 2× Master Mix (Applied Biosystems), 10 ng/reaction/well cDNA, and 2,5 μM each gene-specific primer. An ABI PRISM 7700 analyzer (Applied Biosystems) was used at 50° C. for 2 minutes and 95° C. for 10 minutes, followed by 40 cycles at 95° C. for 15 seconds and 60° C. for 1 minute. Cycle threshold (Ct) values were exported onto Excel worksheets for analysis. Test cDNA results were normalized versus mouse β-actin housekeeping gene. Fold differences in gene expression between the subtracted versus the unsubtracted populations were expressed using the method of 2^−ΔΔCt. (Table 6)
# RT112 = experiment: Proliferation assay using bladder cancer cell lines: RT112; type: cell-based, human; details: Homo sapiens, RT-112; 72 h culture, CyQuant proliferation assay
# Procedure: as §2
# Caco-2 cells = experiment: Apparent permeability on Caco-2 cells; type: in vitro ADME, Human; details: for Papp_A > B / Papp_B >: 10 μM, 2 h; for Mass Bal A > B: unit assumed
# Procedure: (§3) Apparent Permeability on Caco-2 cells. Human colon adenocarcinoma (Caco-2) cells were obtained from the American Type Culture Collection (Rockville, Md.). Permeability studies were performed using a 24-well format in both transport directions, apical to basolateral (A→B) and basolateral to apical (B→A), on Caco-2 monolayers. Fresh donor solution containing 10 μM test compound was added to either the apical or the basolateral side, while drug-free medium was placed on the opposite side. The 24-transwell plates were placed on a plate shaker at 37° C. After 2 h, the buffer from the receiving and donor chambers were collected and aliquots were analysed via LC-MS/MS. The data reported were the permeability cm·10^−6/sec and the efflux ratio.
# [5] = Determination of Maximum Tolerated Dose (MTD) in mice; details: mouse, in vivo, po; female C57BL/6 mice, p.o. daily for four days; highest dose without hypercalcemia (serum calcium >10.7 mg/dl)
# [6] = Theoretical maximum absorbable dose (MAD), human intestine; details: for MAD (ug) human (PAMPA): calculated using PAMPA permeability
# Procedure: as §1
# [7] = Solubility in aqueous buffer; type: physicochemical; details: kinetic from dmso stock; for solubility at 2 h: pH 7, 2 h; for solubility at 24 h: pH 7, 24 h; for solubility: pH 7.4, aqueous buffer
# Procedure: […] A 96-well plate format assay was used. […] Solutions were filtered through a 0.22 μm and concentrations of the concentration of the compound in the filtrate was determined using LC-MS/MS in comparison with 1 and 10 μM standards. The measurements were expressed as mM.
# [8] = system: IFN-γ production by allogeneic PBMC; experiment: IFN-γ production in the mixed leukocyte response (MLR); type: cell-based; details: 120 h; MLR of allogeneic PBMC, 5 days, ELISA; read-out: INF-γ IC50
# Procedure: Immature dendritic cells (DC) were prepared as described in Romani, N. et al. (Romani, N. et al. (1996) J. Immunol. Meth. 196:137). IFN-γ production by allogeneic T cell activation in the mixed leukocyte response (MLR) was determined as described in Penna, G., et al., J Immunol., 164: 2405-2411 (2000).
# Briefly, peripheral blood mononuclear cells (PBMC) were separated from buffy coats by Ficoll gradient and the same number (3×10^5) of allogeneic PBMC from 2 different donors were co-cultured in 96-well flat-bottom plates. The vitamin D3 compounds were added to each of the cultures.
# [9] = target: T1, human cDNA expressed CYP3A4 (Homo sapiens, UniProt P08684); experiment: Metabolic stability (hCYP3A4); type: in vitro ADME; details: 2 μM, 60 min at 37° C.
# T1 construct: purchased Gentest
# Procedure: Metabolic Stability (hCYP34A4). The relative stability of the substrate was determined by measuring the amount of substrate remaining following incubation with human cDNA expressed CYP3A4 microsomal preparations (Gentest, 6 pmol) against a control microsomal incubation containing no active cytochrome P450. The assay was performed in a 96-well plate format. Each compound was incubated at a concentration of 2 μM for 60 min at 37° C. LC-MS/MS was used for determining the compound remaining after incubation. The results were expressed as % remaining.
# [10] = Apparent permeability on Caco-2 cells; type: in vitro ADME, Human; details: human, Caco-2, Table 8
# Procedure: as §3
# [11] = system: human stromal bladder cells; experiment: Basal growth of human stromal bladder cells; type: cell-based; details: FIG. 2
# From the text: The Inventors confirmed the presence of vitamin D receptors (VDRs), as previously reported in the literature, on these cells (see below in FIG. 1).
# The maximum tolerated dose (MTD) in rats is also listed for each compound (Table 5).
# [12] = calculated using Caco2-AB permeability
# T1 sequence (P08684 whole entry): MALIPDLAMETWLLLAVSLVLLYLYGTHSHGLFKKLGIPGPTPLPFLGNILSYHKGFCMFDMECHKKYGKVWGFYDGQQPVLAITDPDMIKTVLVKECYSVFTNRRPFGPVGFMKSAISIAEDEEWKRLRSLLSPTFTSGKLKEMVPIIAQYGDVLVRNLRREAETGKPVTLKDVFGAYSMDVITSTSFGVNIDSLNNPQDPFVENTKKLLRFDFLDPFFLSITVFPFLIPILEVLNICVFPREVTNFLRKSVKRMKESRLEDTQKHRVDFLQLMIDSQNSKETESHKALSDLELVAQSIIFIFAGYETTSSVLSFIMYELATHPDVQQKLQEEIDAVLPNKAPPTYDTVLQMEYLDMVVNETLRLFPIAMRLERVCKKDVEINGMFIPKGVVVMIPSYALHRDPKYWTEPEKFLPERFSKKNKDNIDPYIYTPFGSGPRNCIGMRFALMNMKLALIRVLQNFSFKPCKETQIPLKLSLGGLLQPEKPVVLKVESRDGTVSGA
SMILES,MAD (ug) mouse (PAMPA) [1],IC50 (RT4),MAD (ug) rat (PAMPA) [2],PAMPA % Memb [3],"Papp at 4 h, 10 μM [3]",IC50 (NHEK),IC50 [4],IC50 (RT112),Papp_A > B (Caco-2 cells; apical to basolateral),Mass Bal A > B (Caco-2 cells; apical to basolateral),Mass Bal B > A (Caco-2 cells; basolateral to apical),Papp_B > (Caco-2 cells; basolateral to apical),MTD at 4 days [5],MAD (ug) human (PAMPA) [6],solubility at 2 h [7],solubility at 24 h [7],solubility [7],IC50 [8],CYP3A4 stability [9],also measured
"C[C@]12CCC/C(=C\C=C3\CC(O)C[C@H](O)C3)C1CC=C2C1(C/C=C\C(O)(C(F)(F)F)C(F)(F)F)CC1 (stereo partly drawn) [Compound 7, 1α,25-Dihydroxy-16-ene-20-cyclopropyl-23,24-Z-ene-26,27-hexafluoro-19-nor-cholecalciferol]",8.20 µg,2200 nM,39.99 µg,58.1%,47.8 ×10⁻⁶ cm/s,4400 nM,2.58 nM,9600 nM,0.0 cm·10^−6/sec,13.1%,83.3%,0.0 cm·10^−6/sec,0.3 µg/kg,2788.31 µg,4.2 µM,4.1 µM,2.17 µg/mL,0.055 nM,58.3 % remaining,"Caco2 Papp_AB (Caco-2 cells; apical to basolateral, Table 8): 0.00 10-6 cm/sec; Caco2 Papp_BA (Caco-2 cells; basolateral to apical, Table 8): 0.00 10-6 cm/sec"
"C[C@]12CCC/C(=C\C=C3\CC(O)C[C@H](O)C3)C1CC=C2C1(CC#CC(O)(C(F)(F)F)C(F)(F)F)CC1 (stereo partly drawn) [Compound 3, 1α,25-Dihydroxy-16-ene-20-cyclopropyl-23,24-yne-26,27-hexafluoro-19-nor-cholecalciferol]",–,5200 nM,–,–,–,1000 nM,0.73 nM,22700 nM,3.0 cm·10^−6/sec,8.8%,50.5%,6.0 cm·10^−6/sec,0.3 µg/kg,–,1.3 µM,7.1 µM,0.674 µg/mL,0.014 nM,45.5 % remaining,"MAD (ug) mouse (Caco2-AB) [1, 12]: 0.16 (Caco2-AB) ug; MAD (ug) rat (Caco2-AB) [2, 12]: 0.78 (Caco2-AB) ug; Papp A→B at 2 h, 10 μM ([10]; apical to basolateral, read-out: Caco2 Papp_AB): 3 ×10⁻⁶ cm/s; Papp B→A at 2 h, 10 μM ([10]; basolateral to apical, read-out: Caco2 Papp_BA): 6 ×10⁻⁶ cm/s; MAD (ug) human (Caco2-AB) [6, 12]: 54.43 (Caco2-AB) ug"
"C=C1/C(=C\C=C2/CCC[C@]3(C)C(C4(C/C=C\C(O)(C(F)(F)F)C(F)(F)F)CC4)=CCC23)CC(O)C[C@@H]1O (stereo partly drawn) [Compound 8, 1α,25-Dihydroxy-16-ene-20-cyclopropyl-23,24-Z-ene-26,27-hexafluoro-cholecalciferol]",2.11 µg,3300 nM,10.28 µg,57.6%,50 ×10⁻⁶ cm/s,3600 nM,1.6 nM,15500 nM,–,–,–,–,1 µg/kg,716.81 µg,< 1 µM,1.6 µM,0.533 µg/mL,0.033 nM,52.7 % remaining,inhibiting the basal growth of bladder cells [11]: effective
